IC50 data for 33 compounds are collected here from patent US11685732B2, “MYST family histone acetyltransferase inhibitors” (Epizyme, Inc., priority 2017, dated 2023).

Structures are written as SMILES.

One test addresses KAT-5 (Homo sapiens (Human), UniProt Q92993). Briefly: KAT-5 biochemical inhibition assay (SAMDI mass spectrometry). Put shortly:
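KAT-5 at 9 nM final was preincubated with serially diluted compound (2% DMSO) in 50 mM Tris pH 8.0 with 1 mM DTT. Reaction ran with 1 μM peptide substrate and 0.5 μM acetyl-CoA for 90 min at 25° C, was quenched with 0.5% formic acid, and was read by SAMDI-TOF mass spectrometry.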

The next test has as its target KAT-6A (Homo sapiens (Human), UniProt Q92794). Briefly: KAT-6A biochemical inhibition assay (SAMDI mass spectrometry). The method in brief:
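Enzyme (12.5 nM final) pre-incubated with serially diluted compounds (2% DMSO final) in 50 mM Tris pH 8.0 with Tween20, gelatin and 1 mM DTT. Reaction started with 1 μM peptide substrate and 1 μM acetyl-CoA, run 90 min at 25 °C, quenched with 0.5% formic acid, read by SAMDI-TOF mass spectrometry; IC50 derived.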

Another test has as its target KAT-7 (Homo sapiens (Human), UniProt O95251). Briefly: KAT-7 biochemical inhibition assay (SAMDI mass spectrometry). Put shortly:
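KAT-7 (6 nM) was pre-incubated with serially diluted compound (2% DMSO) in Tris pH 8.0 with DTT. Reaction with 1 μM peptide and 2 μM acetyl-CoA ran 120 min at 25 °C and was stopped with 0.5% formic acid. Acetylation was read by SAMDI-TOF mass spectrometry to give IC50.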

A further test concerns the target KAT-8 (Homo sapiens (Human), UniProt Q9H7Z6). Description: KAT-8 biochemical inhibition assay (SAMDI mass spectrometry). Put shortly:
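Compounds in 2% DMSO pre-incubated with 12.5 nM enzyme in 50 mM Tris pH 8.0 with Tween20, gelatin and 1 mM DTT. Then 1 μM peptide and 5 μM acetyl-CoA were added, 90 min at 25 °C; formic acid stop and SAMDI-TOF mass spectrometry for IC50.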

Sequence of KAT-8 (Q9H7Z6 other isoform, or with tags, fused parts or gaps): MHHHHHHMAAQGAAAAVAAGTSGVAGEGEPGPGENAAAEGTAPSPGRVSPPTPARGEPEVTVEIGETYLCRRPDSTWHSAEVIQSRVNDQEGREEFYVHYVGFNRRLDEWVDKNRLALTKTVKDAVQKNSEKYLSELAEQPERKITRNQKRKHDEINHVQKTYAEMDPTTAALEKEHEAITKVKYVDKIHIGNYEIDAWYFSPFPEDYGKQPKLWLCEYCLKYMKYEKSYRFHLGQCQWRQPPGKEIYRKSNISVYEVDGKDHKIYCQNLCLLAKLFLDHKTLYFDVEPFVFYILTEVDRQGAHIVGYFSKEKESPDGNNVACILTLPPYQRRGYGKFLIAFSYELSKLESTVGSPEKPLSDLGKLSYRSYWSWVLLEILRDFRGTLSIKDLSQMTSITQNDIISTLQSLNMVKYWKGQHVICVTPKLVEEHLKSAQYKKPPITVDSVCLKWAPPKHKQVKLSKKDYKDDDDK
Sequence of KAT-5 (Q92993 other isoform, or with tags, fused parts or gaps): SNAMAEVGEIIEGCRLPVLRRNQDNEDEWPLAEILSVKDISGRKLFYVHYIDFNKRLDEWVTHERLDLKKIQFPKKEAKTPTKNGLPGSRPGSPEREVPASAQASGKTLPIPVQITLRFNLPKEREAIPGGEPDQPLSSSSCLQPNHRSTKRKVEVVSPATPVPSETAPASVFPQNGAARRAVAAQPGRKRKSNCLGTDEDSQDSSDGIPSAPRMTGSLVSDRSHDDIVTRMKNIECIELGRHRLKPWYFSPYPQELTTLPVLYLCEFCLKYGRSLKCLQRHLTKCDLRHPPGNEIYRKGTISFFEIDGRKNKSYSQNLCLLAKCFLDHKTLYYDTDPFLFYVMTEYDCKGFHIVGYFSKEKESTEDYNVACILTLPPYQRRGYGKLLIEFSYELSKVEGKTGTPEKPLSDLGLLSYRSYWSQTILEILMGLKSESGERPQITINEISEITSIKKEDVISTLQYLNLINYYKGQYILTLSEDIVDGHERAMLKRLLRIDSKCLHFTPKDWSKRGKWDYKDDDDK
Sequence of KAT-7 (O95251 other isoform, or with tags, fused parts or gaps): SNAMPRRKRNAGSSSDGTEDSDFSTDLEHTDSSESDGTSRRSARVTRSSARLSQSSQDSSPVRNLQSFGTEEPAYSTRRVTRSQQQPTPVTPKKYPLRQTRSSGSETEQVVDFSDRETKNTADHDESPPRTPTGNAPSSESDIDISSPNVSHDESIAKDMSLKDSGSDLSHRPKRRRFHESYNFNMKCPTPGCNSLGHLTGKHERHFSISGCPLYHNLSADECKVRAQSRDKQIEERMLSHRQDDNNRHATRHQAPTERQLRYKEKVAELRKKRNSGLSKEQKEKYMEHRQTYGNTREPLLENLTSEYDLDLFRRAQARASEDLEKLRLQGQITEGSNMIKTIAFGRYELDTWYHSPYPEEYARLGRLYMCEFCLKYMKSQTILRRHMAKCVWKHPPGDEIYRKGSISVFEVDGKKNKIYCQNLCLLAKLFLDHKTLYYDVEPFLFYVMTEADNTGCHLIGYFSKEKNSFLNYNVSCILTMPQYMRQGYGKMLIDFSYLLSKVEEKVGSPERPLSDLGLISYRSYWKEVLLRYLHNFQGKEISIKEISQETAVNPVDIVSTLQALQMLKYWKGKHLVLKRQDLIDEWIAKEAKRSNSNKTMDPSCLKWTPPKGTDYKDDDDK
Sequence of KAT-6A (Q92794 other isoform, or with tags, fused parts or gaps): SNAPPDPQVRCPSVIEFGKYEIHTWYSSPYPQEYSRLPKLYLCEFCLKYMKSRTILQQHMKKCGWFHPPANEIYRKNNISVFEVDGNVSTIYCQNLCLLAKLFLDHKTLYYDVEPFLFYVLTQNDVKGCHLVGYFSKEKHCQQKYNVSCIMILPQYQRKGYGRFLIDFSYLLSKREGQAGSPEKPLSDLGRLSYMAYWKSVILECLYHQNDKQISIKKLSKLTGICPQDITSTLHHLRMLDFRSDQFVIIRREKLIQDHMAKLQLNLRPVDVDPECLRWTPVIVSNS

In the case of `COc1ccc(CN(C)C(=O)N2CC[C@@H](CS(=O)(=O)NNC(=O)c3cc(-c4cn(C)cn4)cc(Cl)c3F)C2)cc1` [Compound I-179], the IC50 against KAT-5 was under 10 µM; against KAT-6A, under 10 µM; at KAT-7, under 10 µM; on KAT-8, 10 to 50 µM.
Regarding `CN(C)C(=O)N[C@H]1C[C@H](CS(=O)(=O)NNC(=O)c2cc(-c3cn(C)cn3)cc(Cl)c2F)C1` [Compound I-180], the IC50 against KAT-5 is under 10 µM; against KAT-6A, under 10 µM; on KAT-7, under 10 µM; on KAT-8 it was 10 to 50 µM.
In the case of `COc1ccc(CNC(=O)N2CCC(CS(=O)(=O)NNC(=O)c3cc(-c4cn(C)cn4)cc(Cl)c3F)C2)cc1` (stereo not drawn) [Compound I-181], the IC50 was under 10 µM against KAT-5, under 10 µM against KAT-6A, under 10 µM at KAT-7 and 10 to 50 µM against KAT-8.
Regarding `CNC(=S)N1CC[C@@H](CS(=O)(=O)NNC(=O)c2cc(-c3cn(C)cn3)cc(Cl)c2F)C1` [Compound I-183], the IC50 on KAT-5 was under 10 µM; at KAT-6A, under 10 µM; against KAT-7 it was under 10 µM; on KAT-8 it was 10 to 50 µM.
For the compound `CC(=O)N[C@H]1CC[C@@H](CS(=O)(=O)NNC(=O)c2cc(-c3cn(C)cn3)cc(Cl)c2F)CC1` [Compound I-184], the IC50 against KAT-5 was under 10 µM; against KAT-6A it was under 10 µM; against KAT-7 it was under 10 µM; at KAT-8, 10 to 50 µM.
On to `Cn1cnc(-c2cc(Cl)c(F)c(C(=O)NNS(=O)(=O)CC3CN(S(=O)(=O)C4CC4)C3)c2)c1` [Compound I-185], for which the 50% inhibitory concentration (IC50) against KAT-5 was 10 to 50 µM; against KAT-6A it was under 10 µM; against KAT-7, under 10 µM; against KAT-8, 10 to 50 µM.
For `CNC(=O)N[C@H]1C[C@@H](CS(=O)(=O)NNC(=O)c2cc(-c3cn(C)cn3)cc(Cl)c2F)C1` [Compound I-186], the half-inhibitory concentration (IC50) is under 10 µM against KAT-5, under 10 µM against KAT-6A, under 10 µM at KAT-7 and 10 to 50 µM against KAT-8.
In the case of `CC(C)NC(=O)N1CCCC(CS(=O)(=O)NNC(=O)c2cc(-c3cn(C)cn3)cc(Cl)c2F)C1` (stereo not drawn) [Compound I-187], the IC50 at KAT-5 was under 10 µM; at KAT-6A, under 10 µM; against KAT-7, under 10 µM; at KAT-8, 10 to 50 µM.
`CNC(=O)N[C@H]1C[C@H](CS(=O)(=O)NNC(=O)c2cc(-c3cn(C)cn3)cc(Cl)c2F)C1` [Compound I-188]: the IC50 is 10 to 50 µM against KAT-5, 10 to 50 µM on KAT-6A, under 10 µM at KAT-7 and 10 to 50 µM on KAT-8.
For `COCCN(Cc1ccc(OC)cc1)C(=O)N1CCC(CS(=O)(=O)NNC(=O)c2cc(-c3cn(C)cn3)cc(Cl)c2F)C1` (stereo not drawn) [Compound I-189], the IC50 against KAT-5 is under 10 µM; against KAT-6A, under 10 µM; against KAT-7 it was under 10 µM; on KAT-8, 10 to 50 µM.
Regarding `COCCNC(=O)N1CCC(CS(=O)(=O)NNC(=O)c2cc(-c3cn(C)cn3)cc(Cl)c2F)C1` (stereo not drawn) [Compound I-190], the IC50 was under 10 µM at KAT-5, under 10 µM on KAT-6A, under 10 µM against KAT-7 and 10 to 50 µM on KAT-8.
As for `CNC(=O)N1CCCC(CS(=O)(=O)NNC(=O)c2cc(-c3cn(C)cn3)cc(Cl)c2F)C1` (stereo not drawn) [Compound I-191], the IC50 was under 10 µM against KAT-5, under 10 µM at KAT-6A, under 10 µM on KAT-7 and 10 to 50 µM against KAT-8.
Turning to `COCCc1nc(-c2cc(Cl)c(F)c(C(=O)NNS(=O)(=O)CC3CCCCC3)c2)cn1C` [Compound I-192], the IC50 at KAT-5 was 10 to 50 µM; against KAT-6A it was 10 to 50 µM; at KAT-7, under 10 µM; at KAT-8, 10 to 50 µM.
As to `CC(C)S(=O)(=O)N1CC(CS(=O)(=O)NNC(=O)c2cc(-c3cn(C)cn3)cc(Cl)c2F)C1` [Compound I-193], the IC50 against KAT-5 was 10 to 50 µM; at KAT-6A, under 10 µM; against KAT-7 it was under 10 µM; on KAT-8, 10 to 50 µM.
As for `Cn1cnc(-c2cc(Cl)c(F)c(C(=O)NNS(=O)(=O)C[C@H]3CC[C@H](NC(N)=O)CC3)c2)c1` [Compound I-194], the IC50 was under 10 µM against KAT-5, under 10 µM against KAT-6A, under 10 µM against KAT-7 and 10 to 50 µM against KAT-8.
On to `CCC(=O)N[C@H]1CC[C@H](CS(=O)(=O)NNC(=O)c2cc(-c3cn(C)cn3)cc(Cl)c2F)CC1` [Compound I-195], for which the IC50 was under 10 µM on KAT-5, under 10 µM against KAT-6A, under 10 µM against KAT-7 and 10 to 50 µM against KAT-8.
For `Cn1cnc(-c2cc(Cl)c(F)c(C(=O)NNS(=O)(=O)C[C@H]3CC[C@H](NC(=O)C4CCC4)CC3)c2)c1` [Compound I-196], the IC50 against KAT-5 is under 10 µM; at KAT-6A, under 10 µM; at KAT-7, under 10 µM; against KAT-8 it was 10 to 50 µM.
On to `CC(C)NC(=O)N1CCC(CS(=O)(=O)NNC(=O)c2cc(-c3cn(C)cn3)cc(Cl)c2F)C1` (stereo not drawn) [Compound I-198], for which the IC50 on KAT-5 was under 10 µM; against KAT-6A, under 10 µM; against KAT-7, under 10 µM; on KAT-8, 10 to 50 µM.
In the case of `CCC(=O)NC1CCCC(CS(=O)(=O)NNC(=O)c2cc(-c3cn(C)cn3)cc(Cl)c2F)C1` (stereo not drawn) [Compound I-199], the concentration for half-maximal inhibition (IC50) is under 10 µM against KAT-5, under 10 µM against KAT-6A, under 10 µM against KAT-7 and 10 to 50 µM on KAT-8.
As to `Cn1cnc(-c2cc(Cl)c(F)c(C(=O)NNS(=O)(=O)C[C@H]3CC[C@@H](NC(N)=O)CC3)c2)c1` [Compound I-200], the half-maximal inhibitory concentration (IC50) against KAT-5, at KAT-6A, against KAT-7 and on KAT-8 was under 10 µM each time.
Take `CC(C)C(=O)N[C@H]1CC[C@H](CS(=O)(=O)NNC(=O)c2cc(-c3cn(C)cn3)cc(Cl)c2F)CC1` [Compound I-201]: the IC50 against KAT-5 was under 10 µM; on KAT-6A, under 10 µM; against KAT-7 it was under 10 µM; against KAT-8 it was 10 to 50 µM.
In the case of `COc1ccc(CN(C)C(=O)N2CC(CS(=O)(=O)NNC(=O)c3cc(-c4cn(C)cn4)cc(Cl)c3F)C2)cc1` [Compound I-202], the half-maximal inhibitory concentration (IC50) at KAT-5 was under 10 µM; on KAT-6A, under 10 µM; against KAT-7, under 10 µM; against KAT-8 it was 10 to 50 µM.
As for `COc1ccc(CNC(=O)N2CC(CS(=O)(=O)NNC(=O)c3cc(-c4cn(C)cn4)cc(Cl)c3F)C2)cc1` [Compound I-203], the IC50 on KAT-5 is under 10 µM; against KAT-6A, under 10 µM; at KAT-7 it was under 10 µM; at KAT-8, 10 to 50 µM.
As to `CC(C)NC(=O)N1CC(CS(=O)(=O)NNC(=O)c2cc(-c3cn(C)cn3)cc(Cl)c2F)C1` [Compound I-204], the concentration for half-maximal inhibition (IC50) was 10 to 50 µM at KAT-5, 10 to 50 µM on KAT-6A, under 10 µM on KAT-7 and 10 to 50 µM against KAT-8.
For the compound `Cn1cnc(-c2cc(Cl)c(F)c(C(=O)NNS(=O)(=O)CC3CCN(C(N)=O)C3)c2)c1` (stereo not drawn) [Compound I-205], the IC50 is under 10 µM at KAT-5, under 10 µM at KAT-6A, under 10 µM against KAT-7 and 10 to 50 µM at KAT-8.
On to `CC(C)C(=O)NC1CCCC(CS(=O)(=O)NNC(=O)c2cc(-c3cn(C)cn3)cc(Cl)c2F)C1` (stereo not drawn) [Compound I-206], for which the IC50 on KAT-5 is under 10 µM; at KAT-6A, under 10 µM; on KAT-7, under 10 µM; on KAT-8 it was 10 to 50 µM.
`Cn1cnc(-c2cc(Cl)c(F)c(C(=O)NNS(=O)(=O)C[C@H]3C[C@H](NC(N)=O)C3)c2)c1` [Compound I-207]: the IC50 against KAT-5 is 10 to 50 µM; at KAT-6A it was under 10 µM; against KAT-7 it was under 10 µM; on KAT-8, 10 to 50 µM.
Take `Cn1cnc(-c2cc(Cl)c(F)c(C(=O)NNS(=O)(=O)CC3CN(C(N)=O)C3)c2)c1` [Compound I-208]: the IC50 was 10 to 50 µM on KAT-5, 10 to 50 µM at KAT-6A, under 10 µM against KAT-7 and 10 to 50 µM at KAT-8.
On to `CNC(=O)N1CC[C@@H](CS(=O)(=O)NNC(=O)c2cc(-c3cn(C)cn3)cc(Cl)c2F)C1` [Compound I-209], for which the IC50 is under 10 µM against KAT-5, 10 to 50 µM on KAT-6A, under 10 µM against KAT-7 and 10 to 50 µM against KAT-8.
In the case of `CNC(=O)N1CC[C@H](CS(=O)(=O)NNC(=O)c2cc(-c3cn(C)cn3)cc(Cl)c2F)C1` [Compound I-210], the IC50 on KAT-5 was under 10 µM; against KAT-6A, 10 to 50 µM; on KAT-7, under 10 µM; on KAT-8 it was 10 to 50 µM.
`Cn1cnc(-c2cc(Cl)c(F)c(C(=O)NNS(=O)(=O)C[C@H]3CC[C@H](NS(C)(=O)=O)CC3)c2)c1` [Compound I-211]: the half-inhibitory concentration (IC50) against KAT-5 is under 10 µM; against KAT-6A, under 10 µM; at KAT-7, under 10 µM; on KAT-8, 10 to 50 µM.
`COCCn1cc(S(=O)(=O)NNC(=O)c2cc(-c3cn(C)cn3)cc(Cl)c2F)cn1` [Compound I-212]: the IC50 is 10 to 50 µM against KAT-5, 10 to 50 µM against KAT-6A, under 10 µM against KAT-7 and 10 to 50 µM on KAT-8.
With `COc1ccc(CNC(=O)N[C@H]2C[C@@H](CS(=O)(=O)NNC(=O)c3cc(-c4cn(C)cn4)cc(Cl)c3F)C2)cc1` [Compound I-213], the IC50 against KAT-5 was under 10 µM; on KAT-6A, under 10 µM; on KAT-7 it was under 10 µM; against KAT-8, 10 to 50 µM.

One may read the IC50 as the concentration at which inhibition is half-maximal.
